Source: patent US7919329B2, “Method for screening for agents that affect food intake” (Oregon Health & Science University, priority 2001, dated 2011)
Where two headings read alike, the source gives them in different places. No end group written: not given here.

Assays:
POMC neurons [1] = assay: Action potential frequency / firing rate of POMC neurons (whole cell and loose cell-attached); type: cell-based, mouse; conditions: for POMC neuron firing rate (frequency of action potentials): fenfluramine 20 μM, loose-cell-attached, n=3
POMC neurons [2] = assay: Whole cell recordings of membrane potential of EGFP-labeled POMC neurons in arcuate (ARC) slices; type: cell-based, mouse
POMC neurons [3] = assay: GABAergic IPSCs recorded in POMC neurons of ARC slices; type: cell-based, mouse
hypothalamic explants = hypothalamic explants (Batterham et al.); cited from earlier work
[4] = system: non-POMC neurons in the arcuate nucleus; assay: Membrane potential of non-fluorescent (non-POMC) neurons in the arcuate nucleus; type: cell-based, mouse; conditions: 13 cells tested; also hyperpolarized 5 and depolarized 3
POMC neurons [5] = assay: I-V relationships of drug-induced currents in POMC neurons; type: cell-based, mouse; conditions: leptin 100 nM, slow voltage ramps

CCNC(C)Cc1cccc(C(F)(F)F)c1 (stereo not drawn) [Fenfluramine, fenfluramine]
POMC neuron firing rate (frequency of action potentials) (POMC neurons [1]): two fold increase
POMC neuron firing rate (frequency of action potentials) (POMC neurons [1]; listed as d-FEN): doubling
resting membrane potential of POMC neurons (depolarization) (POMC neurons [2]): depolarized POMC neurons

Clc1cncc(N2CCNCC2)n1 [MK 212, 6-Chloro-2-(1-piperazinyl)pyrazine]
resting membrane potential of POMC neurons (depolarization) (POMC neurons [2]): depolarized POMC neurons

NC1=N[C@H](O)[C@H]2[C@H]3O[C@]4(O)O[C@@H]([C@@H](O)[C@@]2(N1)[C@@H]4O)[C@]3(O)CO [TTX, tetrodotoxin]
large amplitude IPSCs (POMC neurons [3]): abolished large IPSCs

Clc1cccc(N2CCNCC2)c1 [mCPP, 1-(3-Chlorophenyl)piperazine]
resting membrane potential of POMC neurons (depolarization) (POMC neurons [2]): depolarized POMC neurons

NCCc1c[nH]c2ccc(O)cc12 [serotonin]
resting membrane potential of POMC neurons (depolarization) (POMC neurons [2]; serotonin receptor agonists bath-applied four minutes, whole cell, n=4-8 per dose): increased the resting membrane potential (depolarized)

D-Trp^8-γMSH
frequency of action potentials (POMC neurons [1]; D-Trp8-γMSH 7 nM): decreased the frequency of action potentials
increase of frequency of GABAergic IPSCs (POMC neurons [3]; D-Trp8-γMSH 7 nM, 3 of 4 POMC neurons): 280±90%

N-acetyl (Leu^28, Leu^31) NPY (24-36) (Ac-LRHYLNLLTRQRY; ends and bridges not checked) [Y2A]
A-MSH release (hypothalamic explants): concomitant increase in A-MSH release
NPY release (hypothalamic explants): significantly decreased NPY release
depolarization of POMC neurons (POMC neurons [2]; whole cell, PYY3-36 (10 nM, FIG. 6a) n=22, 19 of 22 depolarized, Y2A n=9): 8.7±1.8 mV
reduction of frequency of IPSCs onto POMC neurons (POMC neurons [3]; PYY3-36 (50 nM, FIG. 6c) n=13, Y2A n=8): 44.4±9.3%

ghrelin: agent known to increase feeding, caloric intake, and appetite, and decrease energy expenditure (GSSFLSPEHQRVQQRKESKKPPAKLQPR; ends and bridges not checked; UniProt Q9UBU3 24-51, looked up)
decrease of action potential firing rate of POMC neurons (POMC neurons [1]; ghrelin 50 nM, loose cell attached mode): 50%
hyperpolarization of POMC neurons, mean (POMC neurons [2]; ghrelin 50 nM, three minutes, whole cell): 1.47±0.7 mV
frequency of IPSCs in POMC neurons (POMC neurons [3]; ghrelin 50 nM): increase in the frequency of IPSCs

leptin: adipostatic hormone
effect on adjacent non-fluorescent ARC cells [4]: no effect on 5 of 13 adjacent non-fluorescent cells tested
reversal of small inward current (POMC neurons [5]): approximately −20 mV
time to depolarization after addition (POMC neurons [2]; leptin 0.1-100 nM): 2 to 10 min
depolarization of POMC cells (POMC neurons [2]; leptin 0.1-100 nM, 72 of 77 POMC cells): 3-30 mV
inhibition of IPSCs in the presence of tetrodotoxin (TTX) (POMC neurons [3]): still inhibited IPSCs
decrease of frequency of GABAergic IPSCs (POMC neurons [3]; 100 nM, leptin in 5 out of 15 cells, NPY in all 12 POMC cells tested): 25%

met-enkephalin (YGGFM)
spontaneous action potential generation (POMC neurons [1]): prevented spontaneous action potential generation

neuropeptide Y [NPY]
hyperpolarization of POMC neurons (average) (POMC neurons [2]; NPY, n=3, all POMC neurons tested): 9±6 mV
inhibition of IPSCs in the presence of tetrodotoxin (TTX) (POMC neurons [3]): still inhibited IPSCs
time to decrease of IPSC frequency (POMC neurons [3]; NPY 100 nM): ≤ 3 min

picrotoxin
IPSCs (POMC neurons [3]): blocked all IPSCs
